Results on 7 compounds are retold here after article PMC11915032, “Development of a Novel ^18F-Labeled Radioligand for Imaging Cholesterol 24-Hydroxylase with Positron Emission Tomography” (ACS Pharmacology & Translational Science, 2025).

Series [1] has as its target T1, CYP46A1 (Rattus norvegicus, UniProt A0ACM8QFK4).
T1 construct: from tissue; host or cells: rat brain (Sprague-Dawley rats)
In words: Dynamic PET imaging in Sprague-Dawley rats. The format is in vivo. How it is done:
To investigate the in vivo binding specificity of [^18F]5 toward CYP46A1, dynamic PET imaging was performed in Sprague–Dawley (SD) rats (Figures 5 and S3 in the Supporting Information). […] Future studies will be required to evaluate its suitability in higher species and direct comparisons under identical experimental conditions. […] To investigate the reversibility of the tracer binding, we further performed a displacement study with Soticlestat at 20 min postadministration of [^18F]5 (Figure S4 in the Supporting Information).
The dynamic PET imaging study was performed in SD rats as previously reported.[21] A Genisys G8 PET scanner (Sofie Biosciences, USA) was used for dynamic PET imaging in rats with [^18F]5 (0.04 mCi) for 60 min. In the blocking study, rats were pretreated with Soticlestat (1 mg/kg, intravenous injection via the tail vein) 10 min before administration of [^18F]5. For the chase study, the rats were treated with Soticlestat (1 mg/kg, i.v.) 20 min after administration of [^18F]5.

The target in series [2] is T2, CYP46A1 (Homo sapiens, UniProt Q9Y6A2). The arrangement: method as in PMID 32178974, PMID 34651220, PMID 37770111, PMID 36197966. The note with it: in vivo; cited from earlier work.
T2 sequence (Q9Y6A2 whole entry, species assumed): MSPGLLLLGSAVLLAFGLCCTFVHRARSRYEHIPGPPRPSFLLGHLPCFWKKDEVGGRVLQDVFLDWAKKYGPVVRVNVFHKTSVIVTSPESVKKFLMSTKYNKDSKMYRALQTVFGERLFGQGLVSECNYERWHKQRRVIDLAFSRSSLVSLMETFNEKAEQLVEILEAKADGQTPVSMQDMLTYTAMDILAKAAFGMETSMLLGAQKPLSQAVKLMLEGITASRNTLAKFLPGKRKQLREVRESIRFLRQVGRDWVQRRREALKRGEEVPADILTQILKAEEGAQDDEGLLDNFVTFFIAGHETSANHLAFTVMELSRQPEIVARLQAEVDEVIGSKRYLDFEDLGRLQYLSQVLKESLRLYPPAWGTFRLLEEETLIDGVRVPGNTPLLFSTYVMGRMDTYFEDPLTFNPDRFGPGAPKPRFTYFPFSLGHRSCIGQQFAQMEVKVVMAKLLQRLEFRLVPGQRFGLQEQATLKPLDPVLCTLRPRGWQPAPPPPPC
Series [3] can be described thus: Whole-body biodistribution in CD-1 mice. It is filed as in vivo, mouse. How it is done: The biodistribution study was conducted in CD-1 mice as previously reported.[24] CD-1 mice were administrated with [^18F]5 (10 μCi) and divided into four groups and then euthanized at 5, 15, 30, and 60 min after administration of [^18F]5. Major organs were collected, weighed, and measured by a gamma counter.

A further series in a line: Stability in NHP serum. It is filed as in vitro ADME. The conditions noted are these: 37 °C, up to 60 min. How it is done:
(§1) Mouse serum (Sigma-Aldrich, cat. M5905, 0.4 mL), rat serum (Abcam, cat. ab7488, 0.4 mL), NHP serum (Abcam, cat. ab155109, 0.4 mL), and human serum (Sigma-Aldrich, cat. H4522, 0.4 mL) were incubated at 37 °C for 5 min. Then, formulated [^18F]5 was added and incubated at 37 °C (Benfluorex was used in the positive control test). At 5, 30, and 60 min after incubation with [^18F]5, 100 μL of the samples was drawn in centrifugal tubes and added to ice-cold MeCN (100 μL). The mixtures were centrifuged at 10,000g for 5 min, and the supernatants were analyzed by radio-HPLC.

The nature of a further series: Stability in human serum. The format is in vitro ADME. The conditions noted are these: 37 °C, up to 60 min. How it is done: as §1
A further series in a line: Stability in mouse serum. It is filed as in vitro ADME. The note with it: 37 °C, up to 60 min. How it is done:
as §1

Series [4] can be described thus: In vitro stability in saline. It is filed as physicochemical. The conditions noted are these: saline 18.5 MBq/mL, containing 5% ethanol, up to 60 min. How it is done:
The ^18F-labeling nosylate precursor 6 was prepared via a procedure similar to that of compound 5 in 31% yield over two steps (Scheme S1). […] [^18F]5 was generated in a 13% decay-corrected radiochemical yield with a high molar activity of 93 GBq/μmol (2.5 Ci/ μmol).

Series [5] is described as follows: Radiometabolite analysis in SD rats. It is filed as in vivo, rat. How it is done:
Radiometabolite analysis of [^18F]5 was conducted as previously reported.[25] SD rats were administrated with [^18F]5 and then euthanized at 20 and 60 min after administration of [^18F]5. The brains were collected, homogenized, and centrifuged with cold acetonitrile and PBS buffer. Then, the supernatants were injected into a radio-HPLC with unlabeled 5 as an internal standard. Both [^18F]5 and its ^18F-metabolites were collected by HPLC and then measured by a gamma counter. The same procedure was performed for the plasma.

Series [6] addresses T2, CYP46A1. Nature of the series: CYP46A1 inhibition potency. The format is biochemical.
A short description of the next series: Stability in rat serum. The format is in vitro ADME. The note with it: 37 °C, up to 60 min. How it is done: as §1
Series [7] deals with T1, CYP46A1. Nature of the series: In vitro autoradiography with [^18F]5 on rat brain tissue sections. It is filed as binding. The note with it: displacement of [^18F]5 with unlabeled 5 at varying concentrations. How it is done:
To assess the binding specificity of [^18F]5 for CYP46A1, in vitro autoradiography was performed by using rat brain tissue sections. […] The accumulation patterns are in agreement with the brain distribution of CYP46A1 in rodents.[18] […] Furthermore, [^18F]5 was utilized to assess the potency toward CYP46A1 through an inhibition assay based on an in vitro autoradiography study (Figure 4B). The assay was performed by the incubation of [^18F]5 on rat brain tissue sections in the presence of unlabeled 5 at varying concentrations.
The autoradiography study was conducted as previously reported.[22],[23] In brief, sagittal rat brain sections (20 μm) were incubated with Tris–HCl buffer (50 mM) at room temperature for 20 min and then incubated with [^18F]5 (1 μCi/mL). In the blocking study, the brain sections were incubated with [^18F]5 in the presence of Soticlestat, CHL2205, or 5 (10 μM). Then, the brain sections were washed with ice-cold Tris–HCl buffer (50 mM) for 2 min and cold distilled water for 10 s. Subsequently, the brain sections were dried, positioned on an imaging screen, and scanned by an Amersham Typhoon analyzer system.

The nature of series [8]: logD by shake flask method. It is filed as physicochemical. The conditions noted are these: n-octanol/PBS. How it is done: The lipophilicity was measured according to a previous report.[21] In brief, [^18F]5, n-octanol (3 mL), and PBS (3 mL) were added in a centrifugal tube, followed by vortexing for 3 min and centrifugation (∼14,000 rpm) for 5 min. Then, PBS (around 500 μL) and n-octanol (around 50 μL) were weighed and measured by a gamma counter.

A further series relates to 67 major CNS targets. In words: Off-target binding screen at 10 μM (NIMH PDSP). The conditions noted are these: 10 μM testing concentration; except sigma-2 receptor. How it is done:
Furthermore, off-target binding assays of compound 5 were performed in vitro against 67 major CNS targets (Figure S1 in the Supporting Information).
1 Supporting Scheme, Figures, and Tables
Scheme S1. Synthesis of precursor 6. (i) azetidin-3-ol hydrochloride, triphosgene, NEt 3, dichloromethane, 0 °C to room temperature, 1 h; (ii) 4-nitrobenzenesulfonyl chloride, 4-(dimethylamino)pyridine, NEt3, dichloromethane, room temperature, 12 h, 31% yield over […]
% Inhibition of Target Activity
Figure S1. Off-target pharmacological evaluation of compound 5 against major CNS targets, including common GPCRs, enzymes, ion channels, and transporters: initial screening at a concentration of 10 μM (supported by the NIMH PDSP). All data are mean

T1 sequence (A0ACM8QFK4 29-500): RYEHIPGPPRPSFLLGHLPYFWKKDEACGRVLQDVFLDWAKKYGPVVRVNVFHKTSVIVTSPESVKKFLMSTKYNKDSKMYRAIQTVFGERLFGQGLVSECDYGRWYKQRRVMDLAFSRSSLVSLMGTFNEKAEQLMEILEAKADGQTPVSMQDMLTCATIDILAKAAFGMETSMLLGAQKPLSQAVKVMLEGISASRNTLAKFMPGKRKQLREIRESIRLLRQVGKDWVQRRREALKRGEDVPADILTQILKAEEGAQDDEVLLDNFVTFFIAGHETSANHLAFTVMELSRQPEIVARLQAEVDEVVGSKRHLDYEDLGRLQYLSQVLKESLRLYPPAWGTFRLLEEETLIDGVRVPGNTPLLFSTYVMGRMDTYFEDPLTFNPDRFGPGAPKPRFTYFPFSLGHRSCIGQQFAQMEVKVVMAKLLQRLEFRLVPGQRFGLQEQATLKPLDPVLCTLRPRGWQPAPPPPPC

Take `O=C(c1cccnc1-c1ccncc1)N1CCC(O)(Cc2ccccc2)CC1` [Soticlestat, reference compound]: on CYP46A1 [1] (1 mg/kg i.v. at 20 min postadministration of [^18F]5), the “brain signal in displacement (chase) study” value is recorded as “markedly reduced”.
As for `O=C(C1CCN(c2cnccc2-n2cc(Cl)cn2)CC1)N1CC([18F])C1` [[^18F]3g], at CYP46A1 [2], the “binding specificity toward CYP46A1” value is given as “good binding specificity” and the brain uptake entry was “high brain uptake”.
`O=C(C1CCN(c2cncnc2-c2ccc(F)cc2)CC1)N1CC([18F])C1` [[^18F]T-008]: at CYP46A1 [2], the “binding specificity toward CYP46A1” value is reported as “good binding specificity” and the brain uptake entry was “high brain uptake”.
Take `O=C(N1CC([18F])C1)N1CCc2c(-c3cnco3)cc(C(F)(F)F)cc21` [[^18F]5]: in series [3] (5-60 min), the “bone uptake (radiodefluorination)” value is given as “No obvious increase in bone uptake”. In series [3] (60 min), this compound returned a liver uptake of 6.5 % ID/g. In addition, in series [3] (initially), the “initial uptake in brain, small intestine, kidney and liver” value is on record as ~10 % ID/g. Moreover, the “stability in NHP serum” value in the series “Stability in NHP serum” is given as “minimal radiometabolite formation”. Further, the “stability in human serum” value in “Stability in human serum” was “minimal radiometabolite formation”. Further, the “stability in mouse serum” value in the series “Stability in mouse serum” is recorded as “minimal radiometabolite formation”. Besides, the “in vitro stability (radiolysis) in saline” value in [4] is “no radiolysis detected”. Moreover, in series [5] (20 min postadministration), the “unchanged [^18F]5 in brain” value turned out to be 93% and the “unchanged [^18F]5 in plasma” value was determined as 29%. Also, in series [5] (60 min postadministration), the “unchanged [^18F]5 in brain” value was found to be 92% and the “unchanged [^18F]5 in plasma” value is listed as 23%. In addition, at CYP46A1 [1] (SD rats, baseline PET), the SUVmax in striatum amounted to 4.1 and the SUVmax in thalamus is 4.2. In addition, on CYP46A1 [1] (rodents), the “brain uptake SUV” value is > 4. This compound also showed an IC50 against CYP46A1 [6] of 0.11 nM. The “stability in rat serum” value in “Stability in rat serum” was “minimal radiometabolite formation”.
Consider `O=[11C](NCc1ccccc1)N1CCN(c2cncnc2-c2ccccc2)CC1` [[^11C]A], for which, at CYP46A1 [2], the “binding specificity toward CYP46A1” value was “marginal binding specificity” and the brain uptake entry is “low brain uptake”.
On to `O=C(N1CC(F)C1)N1CCc2c(-c3cnco3)cc(C(F)(F)F)cc21` [Compound 5, (3-fluoroazetidin-1-yl)(4-(oxazol-5-yl)-6-(trifluoromethyl)indolin-1-yl)methanone], for which the Kd on CYP46A1 [7] is 0.37 nM. The logD in series [8] is 3.16. Besides, in the series on 67 major CNS targets, the “off-target binding (>50% inhibition)” value was “no significant off-target binding”. The compound also yielded an IC50 against CYP46A1 [6] of 0.11 nM.
For the compound `CN(C(=O)C1CCN(c2cncnc2-c2ccc([18F])cc2)CC1)C1CC1` [[^18F]CHL2205], on CYP46A1 [2], the “binding specificity toward CYP46A1” value is recorded as “good binding specificity” and the brain uptake entry was “high brain uptake”.
